# In patent US10385024B2, “Compounds and methods for inhibiting NHE-mediated antiport in the treatment of disorders associated with fluid retention or salt overload and gastrointestinal tract disorders” (Ardelyx, Inc., priority 2012, dated 2019):
# Experiments:
# human NHE-3 = target: T1, human NHE-3 (Homo sapiens, UniProt P48764); test: Cell-based assay of NHE-3 activity (human NHE3 inhibition assay); conditions: OK cells with human NHE-3 gene, BCECF pH dye, 0-30 μM test compound; for IC50: read-out: Human NHE3 pIC50 (converted)
# T1 construct: expressed in transfected cells; host or cells: Opossum kidney (OK) cells (ATCC), transfected by electroporation
# T1 sequence (P48764 26-834): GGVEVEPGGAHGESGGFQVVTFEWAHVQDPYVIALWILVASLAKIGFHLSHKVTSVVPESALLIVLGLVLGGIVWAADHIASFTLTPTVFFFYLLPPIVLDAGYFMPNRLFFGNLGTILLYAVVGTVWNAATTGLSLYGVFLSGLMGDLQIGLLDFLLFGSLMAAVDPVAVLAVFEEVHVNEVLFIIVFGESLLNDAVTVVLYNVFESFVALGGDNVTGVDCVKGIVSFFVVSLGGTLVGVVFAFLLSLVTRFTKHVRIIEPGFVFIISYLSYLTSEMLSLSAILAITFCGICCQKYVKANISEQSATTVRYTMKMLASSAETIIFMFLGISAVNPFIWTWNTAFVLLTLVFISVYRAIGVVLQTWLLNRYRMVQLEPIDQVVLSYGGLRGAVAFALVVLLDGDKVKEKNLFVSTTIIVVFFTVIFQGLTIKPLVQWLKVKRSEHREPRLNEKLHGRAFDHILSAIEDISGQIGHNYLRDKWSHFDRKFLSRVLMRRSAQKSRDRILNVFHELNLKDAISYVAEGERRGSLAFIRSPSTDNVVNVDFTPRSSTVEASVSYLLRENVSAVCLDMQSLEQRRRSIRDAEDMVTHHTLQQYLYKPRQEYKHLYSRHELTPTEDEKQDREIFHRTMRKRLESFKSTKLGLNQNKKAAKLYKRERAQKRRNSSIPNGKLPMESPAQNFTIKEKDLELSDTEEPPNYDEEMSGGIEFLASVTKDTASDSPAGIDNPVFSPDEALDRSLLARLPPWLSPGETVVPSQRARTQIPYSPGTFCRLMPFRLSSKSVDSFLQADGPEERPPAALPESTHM
# Description: (§1) Rat or human NHE-3-mediated Na^+-dependent H^+ antiport was measured using a modification of the pH sensitive dye method originally reported by Paradiso (Proc. Natl. Acad. Sci. USA. (1984) 81(23): 7436-7440). Opossum kidney (OK) cells were obtained from the ATCC and propagated per their instructions. The rat NHE-3 gene (GenBank M85300) or the human NHE-3 gene (GenBank NM_004174.1) was introduced into OK cells via electroporation, and cells were seeded into 96 well plates and grown overnight. Medium was aspirated from the wells, cells were washed twice with NaCl-HEPES buffer (100 mM NaCl, 50 mM HEPES, 10 mM glucose, 5 mM KCl, 2 mM CaCl2, 1 mM MgCl2, pH 7.4), then incubated for 30 min at room temperature with NH4Cl-HEPES buffer (20 mM NH4Cl, 80 mM NaCl, 50 mM HEPES, 5 mM KCl, 2 mM CaCl2, 1 mM MgCl2, pH 7.4) containing 5 μM bis(acetoxymethyl) 3,3′-(3′,6′-bis(acetoxymethoxy)-5-((acetoxymethoxy)carbonyl)-3-oxo-3H-spiro[isobenzofuran-1,9′-xanthene]-2′,7′-diyl)dipropanoate (BCECF-AM). Cells were washed twice with Ammonium free, Na^+-free HEPES (100 mM choline, 50 mM HEPES, 10 mM glucose, 5 mM KCl, 2 mM CaCl2, 1 mM MgCl2, pH 7.4) and incubated in the same buffer for 10 minutes at room temperature to lower intracellular pH. […] Initial rates were plotted as the average 2 or more replicates, and pIC50 values were estimated using GraphPad Prism.
# Rat NHE-3 [1] = target: T2, Rat NHE-3 (Rattus norvegicus, UniProt P26433); test: Cell-based assay of NHE-3 activity (rat NHE-3 prompt inhibition); conditions: OK cells with rat NHE-3 gene, compound present during pH recovery; for IC50: read-out: Rat NHE3 pIC50 (prompt) (converted)
# T2 construct: expressed in transfected cells; host or cells: Opossum kidney (OK) cells (ATCC), transfected by electroporation
# Description: as §1
# Rat NHE-3 [2] = target: T2, Rat NHE-3; test: Cell-based assay of NHE-3 activity (persistent inhibition, after washout); conditions: OK cells with rat NHE-3 gene, 60 min incubation, recovery initiated 40 min after compound washout; for IC50: read-out: Rat NHE3 pIC50 (persistent) (converted)
# Description: The ability of compounds to inhibit Rat NHE-3-mediated Na^+-dependent H^+ antiport after application and washout was measured using a modification of the pH sensitive dye method described above in Example 74. Opossum kidney (OK) cells were obtained from the ATCC and propagated per their instructions. The rat NHE-3 gene was introduced into OK cells via electroporation, and cells were seeded into 96 well plates and grown overnight. Medium was aspirated from the wells, cells were washed twice with NaCl-HEPES buffer (100 mM NaCl, 50 mM HEPES, 10 mM glucose, 5 mM KCl, 2 mM CaCl2, 1 mM MgCl2, pH 7.4), then overlayed with NaCl-HEPES buffer containing 0-30 μM test compound. After a 60 min incubation, the test drug containing buffer was aspirated from the cells, cells were washed twice with NaCl-HEPES buffer without drug, then incubated for 30 min at room temperature with NH4Cl-HEPES buffer (20 mM NH4Cl, 80 mM NaCl, 50 mM HEPES, 5 mM KCl, 2 mM CaCl2, 1 mM MgCl2, pH 7.4) containing 5 μM BCECF-AM. Cells were washed twice with ammonium free, Na^+-free HEPES (100 mM choline, 50 mM HEPES, 10 mM glucose, 5 mM KCl, 2 mM CaCl2, 1 mM MgCl2, pH 7.4) and incubated in the same buffer for 10 minutes at room temperature to lower intracellular pH. […] Initial rates were plotted as the average 2 or more replicates, and pIC50 values were estimated using GraphPad Prism.
# T2 sequence (P26433 29-831): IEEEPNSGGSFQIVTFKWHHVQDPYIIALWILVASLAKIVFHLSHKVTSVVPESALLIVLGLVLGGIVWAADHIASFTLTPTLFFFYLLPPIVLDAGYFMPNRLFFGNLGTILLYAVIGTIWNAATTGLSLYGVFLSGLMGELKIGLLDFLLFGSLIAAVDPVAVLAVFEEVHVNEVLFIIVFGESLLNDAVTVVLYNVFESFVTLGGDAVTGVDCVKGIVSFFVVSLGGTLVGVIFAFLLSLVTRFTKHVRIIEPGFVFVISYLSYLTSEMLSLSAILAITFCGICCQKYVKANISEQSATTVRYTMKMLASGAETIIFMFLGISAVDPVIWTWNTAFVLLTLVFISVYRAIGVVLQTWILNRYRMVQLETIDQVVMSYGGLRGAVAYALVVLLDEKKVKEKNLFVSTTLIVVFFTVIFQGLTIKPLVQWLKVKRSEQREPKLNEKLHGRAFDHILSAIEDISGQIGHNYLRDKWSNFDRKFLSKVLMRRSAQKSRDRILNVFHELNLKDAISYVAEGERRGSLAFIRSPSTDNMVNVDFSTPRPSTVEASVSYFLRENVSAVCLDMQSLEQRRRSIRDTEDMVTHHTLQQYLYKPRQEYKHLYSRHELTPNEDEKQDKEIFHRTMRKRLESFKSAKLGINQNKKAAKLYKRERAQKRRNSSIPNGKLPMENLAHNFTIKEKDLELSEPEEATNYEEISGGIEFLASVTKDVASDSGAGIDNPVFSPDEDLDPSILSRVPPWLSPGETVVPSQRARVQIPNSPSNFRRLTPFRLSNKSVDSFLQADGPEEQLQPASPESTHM
smiles,measurement,setting,value
"CN1Cc2c(Cl)cc(Cl)cc2[C@H](c2cccc(S(=O)(=O)NCCOCCOCCOCCNC(=O)CCC(CCC(=O)NCCOCCOCCOCCNS(=O)(=O)c3cccc([C@@H]4CN(C)Cc5c(Cl)cc(Cl)cc54)c3)(CCC(=O)NCCOCCOCCOCCNS(=O)(=O)c3cccc([C@@H]4CN(C)Cc5c(Cl)cc(Cl)cc54)c3)NCc3ccc(-c4ccc(Cl)cc4)cc3)c2)C1 [Example 19, 4-((4′-chlorobiphenyl-4-yl)methylamino)-4-(1-(3-((S)-6,8-dichloro-2-methyl-1,2,3,4-tetrahydroisoquinolin-4-yl)phenylsulfonamido)-13-oxo-3,6,9-trioxa-12-azapentadecan-15-yl)-N^1,N^7-bis(2-(2-(2-(2-(3-((S)-6,8-dichloro-2-methyl-1,2,3,4-tetrahydroisoquinolin-4-yl)phenylsulfonamido)ethoxy)ethoxy)ethoxy)ethyl)heptanediamide]",IC50,human NHE-3,> 10000 nM
same,IC50,Rat NHE-3 [1],> 10000 nM
same,IC50,Rat NHE-3 [2],< 100 nM
"CCCCCCCCOc1ccc(CNC(CCC(=O)NCCOCCOCCOCCNS(=O)(=O)c2cccc([C@@H]3CN(C)Cc4c(Cl)cc(Cl)cc43)c2)(CCC(=O)NCCOCCOCCOCCNS(=O)(=O)c2cccc([C@@H]3CN(C)Cc4c(Cl)cc(Cl)cc43)c2)CCC(=O)NCCOCCOCCOCCNS(=O)(=O)c2cccc([C@@H]3CN(C)Cc4c(Cl)cc(Cl)cc43)c2)cc1 [Example 20, 4-(1-(3-((S)-6,8-dichloro-2-methyl-1,2,3,4-tetrahydroisoquinolin-4-yl)phenylsulfonamido)-13-oxo-3,6,9-trioxa-12-azapentadecan-15-yl)-N^1,N^7-bis(2-(2-(2-(2-(3-((S)-6,8-dichloro-2-methyl-1,2,3,4-tetrahydroisoquinolin-4-yl)phenylsulfonamido)ethoxy)ethoxy)ethoxy)ethyl)-4-(4-(octyloxy)benzylamino)heptanediamide]",IC50,human NHE-3,< 100 nM
same,IC50,Rat NHE-3 [1],100 to 10000 nM
same,IC50,Rat NHE-3 [2],< 100 nM
CCCCCCCCCCC(=O)NC(CCC(=O)NCCOCCOCCNS(=O)(=O)c1cccc([C@@H]2CN(C)Cc3c(Cl)cc(Cl)cc32)c1)(CCC(=O)NCCOCCOCCNS(=O)(=O)c1cccc([C@@H]2CN(C)Cc3c(Cl)cc(Cl)cc32)c1)CCC(=O)NCCOCCOCCNS(=O)(=O)c1cccc([C@@H]2CN(C)Cc3c(Cl)cc(Cl)cc32)c1 [Example 22],Human NHE3 pIC50,human NHE-3,B (B NHE3 pIC50 5-7)
same,Rat NHE3 pIC50 (prompt),Rat NHE-3 [1],A (A NHE3 pIC50 < 5)
same,Rat NHE3 pIC50 (persistent),Rat NHE-3 [2],B (B NHE3 pIC50 5-7)
CCCCCCCCOc1ccc(CNC(CCC(=O)NCCOCCOCCNS(=O)(=O)c2cccc([C@@H]3CN(C)Cc4c(Cl)cc(Cl)cc43)c2)(CCC(=O)NCCOCCOCCNS(=O)(=O)c2cccc([C@@H]3CN(C)Cc4c(Cl)cc(Cl)cc43)c2)CCC(=O)NCCOCCOCCNS(=O)(=O)c2cccc([C@@H]3CN(C)Cc4c(Cl)cc(Cl)cc43)c2)cc1 [Example 23],Human NHE3 pIC50,human NHE-3,C (C NHE3 pIC50 > 7)
same,Rat NHE3 pIC50 (prompt),Rat NHE-3 [1],B (B NHE3 pIC50 5-7)
same,Rat NHE3 pIC50 (persistent),Rat NHE-3 [2],B (B NHE3 pIC50 5-7)
CN1Cc2c(Cl)cc(Cl)cc2[C@H](c2cccc(S(=O)(=O)NCCOCCOCCNC(=O)CCC(CCC(=O)NCCOCCOCCNS(=O)(=O)c3cccc([C@@H]4CN(C)Cc5c(Cl)cc(Cl)cc54)c3)(CCC(=O)NCCOCCOCCNS(=O)(=O)c3cccc([C@@H]4CN(C)Cc5c(Cl)cc(Cl)cc54)c3)NCc3ccc(-c4ccc(Cl)cc4)cc3)c2)C1 [Example 24],Human NHE3 pIC50,human NHE-3,A (A NHE3 pIC50 < 5)
same,Rat NHE3 pIC50 (prompt),Rat NHE-3 [1],A (A NHE3 pIC50 < 5)
same,Rat NHE3 pIC50 (persistent),Rat NHE-3 [2],B (B NHE3 pIC50 5-7)
"CN1Cc2c(Cl)cc(Cl)cc2[C@H](c2cccc(S(=O)(=O)NCCOCCOCCOCCNC(=O)CN(CCOCCOCCN(CC(=O)NCCOCCOCCOCCNS(=O)(=O)c3cccc([C@@H]4CN(C)Cc5c(Cl)cc(Cl)cc54)c3)CC(=O)NCCOCCOCCOCCNS(=O)(=O)c3cccc([C@@H]4CN(C)Cc5c(Cl)cc(Cl)cc54)c3)CC(=O)NCCOCCOCCOCCNS(=O)(=O)c3cccc([C@@H]4CN(C)Cc5c(Cl)cc(Cl)cc54)c3)c2)C1 [Example 42, 3,12-bis(14-(3-((S)-6,8-dichloro-2-methyl-1,2,3,4-tetrahydroisoquinolin-4-yl)phenylsulfonamido)-2-oxo-6,9,12-trioxa-3-azatetradecyl)-N^1,N^14-bis(2-(2-(2-(2-(3-((S)-6,8-dichloro-2-methyl-1,2,3,4-tetrahydroisoquinolin-4-yl)phenylsulfonamido)ethoxy)ethoxy)ethoxy)ethyl)-6,9-dioxa-3,12-diazatetradecane-1,14-diamide]",IC50,human NHE-3,< 100 nM
same,IC50,Rat NHE-3 [1],< 100 nM
same,IC50,Rat NHE-3 [2],< 100 nM
"CN1Cc2c(Cl)cc(Cl)cc2[C@H](c2cccc(S(=O)(=O)NCCOCCOCCNC(=O)NCCN(CCNC(=O)NCCOCCOCCNS(=O)(=O)c3cccc([C@@H]4CN(C)Cc5c(Cl)cc(Cl)cc54)c3)C(=O)CCCCCCCCCCC(=O)N(CCNC(=O)NCCOCCOCCNS(=O)(=O)c3cccc([C@@H]4CN(C)Cc5c(Cl)cc(Cl)cc54)c3)CCNC(=O)NCCOCCOCCNS(=O)(=O)c3cccc([C@@H]4CN(C)Cc5c(Cl)cc(Cl)cc54)c3)c2)C1 [Example 44, N^1,N^1,N^12,N^12-tetrakis(13-(3-((S)-6,8-dichloro-2-methyl-1,2,3,4-tetrahydroisoquinolin-4-yl)phenylsulfonamido)-4-oxo-8,11-dioxa-3,5-diazatridecyl)dodecanediamide]",IC50,human NHE-3,> 10000 nM
same,IC50,Rat NHE-3 [1],> 10000 nM
same,IC50,Rat NHE-3 [2],100 to 10000 nM
CN1Cc2c(Cl)cc(Cl)cc2[C@H](c2cccc(S(=O)(=O)NCCOCCOCCNC(=O)NCCN(CCNC(=O)NCCOCCOCCNS(=O)(=O)c3cccc([C@@H]4CN(C)Cc5c(Cl)cc(Cl)cc54)c3)C(=O)NCCCCCCCCCCCCNC(=O)N(CCNC(=O)NCCOCCOCCNS(=O)(=O)c3cccc([C@@H]4CN(C)Cc5c(Cl)cc(Cl)cc54)c3)CCNC(=O)NCCOCCOCCNS(=O)(=O)c3cccc([C@@H]4CN(C)Cc5c(Cl)cc(Cl)cc54)c3)c2)C1 [Example 45],IC50,human NHE-3,100 to 10000 nM
same,IC50,Rat NHE-3 [1],100 to 10000 nM
same,IC50,Rat NHE-3 [2],> 10000 nM
CN1Cc2c(Cl)cc(Cl)cc2[C@H](c2cccc(S(=O)(=O)NCCOCCOCCOCCNC(=O)CN(CC(=O)NCCOCCOCCOCCNS(=O)(=O)c3cccc([C@@H]4CN(C)Cc5c(Cl)cc(Cl)cc54)c3)[C@@H]3CCCC[C@H]3N(CC(=O)NCCOCCOCCOCCNS(=O)(=O)c3cccc([C@@H]4CN(C)Cc5c(Cl)cc(Cl)cc54)c3)CC(=O)NCCOCCOCCOCCNS(=O)(=O)c3cccc([C@@H]4CN(C)Cc5c(Cl)cc(Cl)cc54)c3)c2)C1 [Example 48],Human NHE3 pIC50,human NHE-3,C (C NHE3 pIC50 > 7)
same,Rat NHE3 pIC50 (prompt),Rat NHE-3 [1],B (B NHE3 pIC50 5-7)
same,Rat NHE3 pIC50 (persistent),Rat NHE-3 [2],C (C NHE3 pIC50 > 7)
